Test results published in patent publication US8679514B2, “Fungicidal mixtures based on azolopyrimidinylamines” (BASF SE, priority 2005, dated 2014).

What was measured:
Format in all cases: cell-based
Botrytis cinerea = experiment: Activity against the gray mold pathogen Botrytis cinerea in the microtiter test; conditions: Botrytis cinerea, single active compound, read-out: Observed activity (%); for inhibition at 0.25 µg/mL: Conc. 0.25 mg/l
Phytophthora infestans = experiment: microbe, parasite or virus in culture
Pyricularia oryzae = experiment: microbe, parasite or virus in culture
[1] = Phytophthora infestans, read-out: Observed activity (%)
[2] = Pyricularia oryzae, read-out: Observed activity (%)

CC(C)(C)C(O)(CCc1ccc(Cl)cc1)Cn1cncn1 (centres unmarked) [tebuconazole]
inhibition at 0.25 µg/mL (Botrytis cinerea): 50% | inhibition at 1 µg/mL (Phytophthora infestans; [1]): 8% | inhibition at 4 µg/mL (Phytophthora infestans; [1]): 10% | inhibition at 16 µg/mL (Phytophthora infestans; [1]): 9%

COC(=O)N(OC)c1ccccc1COc1ccn(-c2ccc(Cl)cc2)n1 [pyraclostrobin]
inhibition at 0.016 µg/mL (Phytophthora infestans; [1]): 14% | inhibition at […] (Phytophthora infestans; [1]): 59%

CO/C=C(/C(=O)OC)c1ccccc1CO/N=C(C)/C=C/c1ccc(Cl)cc1 [enestroburin]
Observed activity (%) (Phytophthora infestans): 35%

CCCC1COC(Cn2cncn2)(c2ccc(Cl)cc2Cl)O1 (centres unmarked) [propiconazole]
inhibition at 1 µg/mL (Phytophthora infestans; [1]): 1% | inhibition at 4 µg/mL (Phytophthora infestans; [1]): 11% | inhibition at 16 µg/mL (Phytophthora infestans; [1]): 12%

CC1CN(C2CCCCCCCCCCC2)CC(C)O1 (centres unmarked) [dodemorph]
inhibition at 16 µg/mL (Pyricularia oryzae; [2]): 72%

Cc1cccc(C)c1N(C(=O)CCl)C1CCOC1=O (centres unmarked) [ofurace]
inhibition at 4 µg/mL (Phytophthora infestans; [1]): 0% | inhibition at 16 µg/mL (Phytophthora infestans; [1]): 19%

N#Cc1c(Cl)c(Cl)c(Cl)c(C#N)c1Cl [chlorothalonil]
inhibition at 1 µg/mL (Botrytis cinerea; Conc. 1 mg/l): 55%

COCC(=O)N(c1c(C)cccc1C)N1CCOC1=O [oxadixyl]
inhibition at 1 µg/mL (Phytophthora infestans; [1]): 0% | inhibition at 4 µg/mL (Phytophthora infestans; [1]): 2% | inhibition at 16 µg/mL (Phytophthora infestans; [1]): 17%

Cc1cc(C2CC2)nc(Nc2ccccc2)n1 [cyprodinil]
inhibition at 4 µg/mL (Phytophthora infestans; [1]): 10%

CC1CCN(c2c(-c3c(F)cc(F)cc3F)c(Cl)nc3ncnn23)CC1 [[D-8], 5-chloro-7-(4-methylpiperidin-1-yl)-6-(2,4,6-trifluorophenyl)-[1,2,4]triazolo[1,5-a]pyrimidine, reference compound]
inhibition at 1 µg/mL (Phytophthora infestans; [1]): 43%

COC(=O)C(C)N(C(=O)Cc1ccccc1)c1c(C)cccc1C (centres unmarked) [benalaxyl]
inhibition at 4 µg/mL (Phytophthora infestans; [1]): 13%

CC1COC(Cn2cncn2)(c2ccc(Oc3ccc(Cl)cc3)cc2Cl)O1 (centres unmarked) [difenoconazole]
inhibition at 4 µg/mL (Phytophthora infestans; [1]): 24%

CO/N=C(/C1=NOCCO1)c1ccccc1Oc1ncnc(Oc2ccccc2Cl)c1F [fluoxastrobin]
inhibition at 0.025 µg/mL (Phytophthora infestans; [1]): 2% | inhibition at […] (Phytophthora infestans; [1]): 1%

CC(C)OC(=O)N[C@H](C(=O)N[C@H](C)c1nc2ccc(F)cc2s1)C(C)C [flubenthiavalicarb]
Observed activity (%) (Phytophthora infestans): 68%

O=C(Nc1ccccc1-c1ccc(Cl)cc1)c1cccnc1Cl [boscalid]
inhibition at 63 µg/mL (Pyricularia oryzae; [2]): 12% | inhibition at 1 µg/mL (Phytophthora infestans; [1]): 2% | inhibition at 4 µg/mL (Phytophthora infestans; [1]): 17%

COC(=O)Nc1nc2ccccc2[nH]1 [carbendazim]
inhibition at 0.25 µg/mL (Pyricularia oryzae; [2]): 20%

COc1cc(C)c(C(=O)c2c(OC)ccc(Br)c2C)c(OC)c1OC [metrafenone, 3′-bromo-2,3,4,6′-tetramethoxy-2′,6-dimethylbenzophenone, reference compound]
inhibition at 63 µg/mL (Pyricularia oryzae; [2]): 42% | inhibition at 4 µg/mL (Phytophthora infestans; [1]): 2%

CO/C=C(/C(=O)OC)c1ccccc1Oc1cc(Oc2ccccc2C#N)ncn1 [azoxystrobin]
Observed activity (%) (Phytophthora infestans): 21%

CC(C)NC(=O)N1CC(=O)N(c2cc(Cl)cc(Cl)c2)C1=O [iprodione, N-isopropyl-3-(3,5-dichlorophenyl)-2,4-dioxoimidazolidine-1-carboxamide, reference compound]
inhibition at 4 µg/mL (Pyricularia oryzae; [2]): 46%

CCCN(CCOc1c(Cl)cc(Cl)cc1Cl)C(=O)n1ccnc1 [prochloraz]
inhibition at 16 µg/mL (Phytophthora infestans; [1]): 6%

O=C1C2CC=CCC2C(=O)N1SC(Cl)(Cl)Cl (centres unmarked) [captan, 2-trichloromethylsulfanyl-3a,4,7,7a-tetrahydroisoindole-1,3-dione, reference compound]
inhibition at 1 µg/mL (Pyricularia oryzae; [2]): 44% | inhibition at 1 µg/mL (Phytophthora infestans; [1]): 12%

maneb
Observed activity (%) (Pyricularia oryzae): 32% | Observed activity (%) (Phytophthora infestans): 6%

zinc ammoniate ethylenebis(dithiocarbamate) [metiram, reference compound]
Observed activity (%) (Pyricularia oryzae): 26%

CON=C(C(=O)OC)c1ccccc1CON=C(C)c1cccc(C(F)(F)F)c1 [trifloxystrobin]
inhibition at 0.25 µg/mL (Phytophthora infestans; [1]): 33% | inhibition at 1 µg/mL (Phytophthora infestans; [1]): 46%

CC(C1CC1)C(O)(Cn1cncn1)c1ccc(Cl)cc1 (centres unmarked) [cyproconazole]
inhibition at 4 µg/mL (Pyricularia oryzae; [2]): 54% | inhibition at 4 µg/mL (Phytophthora infestans; [1]): 9%

COC(=O)NC(=S)Nc1ccccc1NC(=S)NC(=O)OC [thiophanate-methyl]
inhibition at 0.25 µg/mL (Botrytis cinerea): 12%

CSC1=N[C@@](C)(c2ccccc2)C(=O)N1Nc1ccccc1 [fenamidone]
inhibition at […] (Phytophthora infestans; [1]): 40%
